# From PMC3723878 (PLoS ONE, 2013)
# Where a chain is given by its changes, count along the chain named.
# Tests used:
# [1] = molecular target: T1, human α1A-AR F308A variant (Homo sapiens, UniProt P35348, F308A); test: Saturation binding of ^125I-HEAT
# T1 construct: expressed in transfected cells; host or cells: COS-7 (transient, calcium phosphate), membranes
# T1 sequence (P35348 1-466 F308A): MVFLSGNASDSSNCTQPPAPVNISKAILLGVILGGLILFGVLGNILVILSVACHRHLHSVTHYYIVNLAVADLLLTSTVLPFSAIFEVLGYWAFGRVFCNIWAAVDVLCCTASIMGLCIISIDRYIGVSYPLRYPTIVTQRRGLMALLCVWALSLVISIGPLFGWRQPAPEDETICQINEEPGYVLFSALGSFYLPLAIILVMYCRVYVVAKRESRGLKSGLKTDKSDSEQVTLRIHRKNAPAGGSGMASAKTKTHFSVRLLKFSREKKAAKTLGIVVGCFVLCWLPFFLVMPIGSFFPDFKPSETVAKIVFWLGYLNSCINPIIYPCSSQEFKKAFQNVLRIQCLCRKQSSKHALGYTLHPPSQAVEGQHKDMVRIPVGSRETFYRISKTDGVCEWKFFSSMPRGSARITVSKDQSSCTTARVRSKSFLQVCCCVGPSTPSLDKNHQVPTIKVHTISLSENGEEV
# Description: (§1) α1A-AR cDNA inserted in the prK5 vector was kindly provided by Michael Brownstein (Craig Venter Institute, Rockville, MD). Point mutations were introduced into the α1A-AR gene by sense and antisense primers (Sigma-Aldrich, St Quentin-Fallavier, France) containing the desired changes, using the QuikChange Site-Directed Mutagenesis kit. The incorporation of each mutation was verified by DNA sequencing.
# (§2) CHO cells stably expressing α1-ARs were kindly provided by Dr. Hervé Paris (INSERM U858, Toulouse, France) and were grown in a 50∶50 Dulbecco's Modified Eagle's Medium (DMEM)/Ham's F12 medium supplemented with 10% (v/v) foetal bovine serum (FBS), glutamine (2 mM), penicillin (100 units/ml) and streptomycin (100 µg/ml) at 37°C with 5% CO2. COS-7 cells were grown at 37°C under 5% CO2 in Dulbecco's modified Eagle's medium containing 10% fetal calf serum, 1% penicillin and 1% glutamine (Sigma-Aldrich, St Quentin-Fallavier, France). At 80% confluence, the cells were transfected using a calcium phosphate precipitation method for transient expression of the genetic construct. After 48 h incubation at 37°C, cells were harvested and the membranes were prepared as follow. Cells were washed with ice-cold phosphate buffer and centrifuged at 1700 g for 10 min (4°C). The pellet was suspended in ice-cold buffer (1 mM EDTA, 25 mM sodium phosphate, and 5 mM MgCl2, pH 7.4) and homogenized using an Potter-Elvehjem homogenizer (Fisher Scientific Labosi, Elancourt, France). The homogenate was centrifuged at 1700 g for 15 min (4°C). The sediment was resuspended in buffer, homogenized, and centrifuged at 1700 g for 15 min (4°C). The combined supernatants were centrifuged at 35,000 g for 30 min (4°C), and the pellet was suspended in the same buffer (0.1 ml/dish). […] Cells were grown in a 50∶50 Dulbecco's Modified Eagle's Medium (DMEM)/Ham's F12 medium supplemented with 10% (v/v) foetal bovine serum (FBS), glutamine (2 mM), penicillin (100 units/ml) and streptomycin (100 µg/ml) at 37°C with 5% CO2. Media was changed every 2–3 days and cells were passaged when confluent with 0.05% trypsin and 0.02% EDTA.
# (§3) Binding experiments were performed in a 100 µL reaction mix at room temperature in buffer composed of 50 mM Tris-HCl, pH 7.4, 10 mM MgCl2, 1 g/L BSA. Reactions were stopped by filtration through 96 GF/C filter plates pre-incubated with 0.5% polyethylenimine.
# (§4) Binding data were analyzed by nonlinear regression using the KaleidaGraph 4.0 software (Synergy software, Reading, PA). pKD values and Bmax (number of binding sites) were determined by applying a nonlinear regression to data obtained with saturation binding assays. The nonlinear regression used was BS = (Bmax*A)/KD+A, where BS is the specific binding, Bmax the number of binding sites, A the concentration of radioligand, and KD the dissociation constant of the radioligand. Data resulting from competition binding assays were analyzed using the Hill equation for IC50 and curve slope estimations. […] The linear curves were analyzed with IC50 = Ki+(L/KD)*Ki. Dissociation kinetics were analyzed using a simple equation of exponential decay BS * exp (-Koff*t), where BS is the specific binding at time zero and Koff is the dissociation rate constant. Results are expressed as mean ± s.e. mean from n independent experiments. One-way Anova test was used to compare values. A p<0.05 was accepted for statistical significance.
# [2] = molecular target: T2, human α1A-AR M292A variant (Homo sapiens, UniProt P35348, M292A); test: Saturation binding of ^125I-HEAT
# T2 construct: expressed in transfected cells; host or cells: COS-7 (transient, calcium phosphate), membranes
# T2 sequence (P35348 1-466 M292A): T1 sequence (P35348 1-466 F308A) with M292A, A308F
# Description: as §1, §2, §3, §4
# α1A-AR = molecular target: T3, α1A-AR (Homo sapiens, UniProt P35348); set-up: expressed in transfected cells; method as in PMID 20978120; conditions: CHO cells used for Ca^2+ release experiments; cited from earlier work
# T3 sequence (P35348 1-466): T1 sequence (P35348 1-466 F308A) with A308F
compound,measurement,setting,value
O=C1c2ccccc2CCC1CNCCc1ccc(O)c([125I])c1 (centres unmarked) [125I-HEAT],^125I-HEAT Ratio (loss of affinity relative to WT),[1]; F308A,2.4
same,^125I-HEAT pKd,"[1]; F308A (7.35), saturation binding, n = 3–6",9.66±0.11
same,^125I-HEAT Ratio (loss of affinity relative to WT),[2]; M292A,2.2
same,^125I-HEAT pKd,"[2]; M292A (6.55), saturation binding, n = 3–6",9.69±0.09
same,pKD,α1A-AR,9.2±0.09
